# Results from patent publication US9920057B2, “Substituted pyrazino[1′,2′:1 ,6]pyrido[3,4-b]indoles as phosphodiesterase type 5 inhibitors” (Chongqing University of Arts and Sciences, priority 2015, dated 2018).
# Values joined by “and” are separate entries in the source; they are usually repeats but may differ in a detail not shown here. Equal values may be shown once. Read-outs that look alike come from different tables or passages of the source.
# Columns and labels:
# [1] = biological target: T1, PDE11A (Homo sapiens, UniProt Q9HCR9); experiment: Inhibition of PDE activity (assay kit); assay type: biochemical
# T1 construct: purchased
# Procedure: (§1) i. Supplement 99 μl assay buffer per well, then add 1 μl compound in DMSO dilution to wells of V96 MicroWell Plates and uniformly mix;
# (§2) ii. Add 5 μl compound in assay buffer dilution to each well of 96-well microplate;
# (§3) the final concentration of compound as below:
# (§4) The inhibitory potential of test compounds on several types of phosphodiesterase (PDE) activity is determined according to the protocol of assay kit.
# [2] = biological target: T2, PDE3A (Homo sapiens, UniProt Q14432); experiment: Inhibition of PDE activity (assay kit); assay type: biochemical
# T2 construct: purchased
# Procedure: as §1, §2, §3, §4
# [3] = biological target: T3, PDE1A (Homo sapiens, UniProt P54750); experiment: Inhibition of PDE activity (assay kit); assay type: biochemical
# T3 construct: purchased
# Procedure: as §1, §2, §3, §4
# [4] = biological target: T4, PDE7A (Homo sapiens, UniProt Q13946); experiment: Inhibition of PDE activity (assay kit); assay type: biochemical
# T4 construct: purchased
# Procedure: as §1, §2, §3, §4
# [5] = biological target: T5, PDE6C (Homo sapiens, UniProt P51160); experiment: Inhibition of PDE activity (assay kit); assay type: biochemical
# T5 construct: purchased
# Procedure: as §1, §2, §3, §4
# [6] = biological target: T6, PDE2A (Homo sapiens, UniProt O00408); experiment: Inhibition of PDE activity (assay kit); assay type: biochemical
# T6 construct: purchased
# Procedure: as §1, §2, §3, §4
# [7] = biological target: T7, PDE4A (Homo sapiens, UniProt P27815); experiment: Inhibition of PDE activity (assay kit); assay type: biochemical
# T7 construct: purchased
# Procedure: as §1, §2, §3, §4
# [8] = Study on pharmacokinetics in rats, oral administration; assay type: in vivo, SD rat
# Procedure: Sample Preparation Method: One step protein precipitation
# Precipitant: ACN, with concentration of Verapamil (5.00 ng·mL-1)
# Calibration Curve and QC samples Preparation: 5.00 μL each of the calibration or QC working solution and 45.0 μL of blank plasma were transferred into a 1.5-mL microcentrifuge tube. Final standard curve concentration levels were 1.00, 2.50, 5.00, 10.0, 50.0, 100, 500 and 1000 ng·mL-1. The QC concentration levels were 2.50 or 5.00, 50.0 and 800 ng·mL-1. Dilution QC was 5000 ng·mL-1.
# Plasma Samples Preparation: Aliquots of 10.0 μL of real samples, calibration curve samples and QC samples were supplemented with 100 μL of precipitant. After vortexed for 3.00 min and centrifuged at 12000 rpm for 5.00 min, the supernatant 10 μL was injected for LC-MS/MS analysis.
# Number of Rats/Group: 3/group
# Administration Route: oral administration
# Blood Collection Time: 0 min, 15 min, 30 min, 1 h, 2 h, 4 h, 6 h, 8 h, 24 h
# [9] = biological target: T8, PDE5A (Homo sapiens, UniProt O76074); experiment: Inhibition against PDE5 (Homogenous Time Resolve Fluoresce); assay type: biochemical; conditions: HTF
# T8 construct: purchased SIGMA-ALDRICH E904
# Procedure: Method: IC50 of an inhibition effect on PDE5A (E904, SIGMA-ALDRICH) of test compounds was tested by using Sildenafil (S1431, selleck) as a positive control sample and the method of Homogenous Time Resolve Fluoresce, HTF (Cat. No. 62GM2PEB, Cisbio.)
# [10] = system: normal rat; experiment: Erectile function of normal rat: blood pressure, intracavernous pressure and detumescence time on cavernous nerve stimulation; assay type: in vivo
# Procedure: Rats were anesthetized with 2% pentobarbital […], then incision was made in the right side of neck, a PE-50 silicon tube connected with a pressure transducer was inserted into the carotid artery, to record the change of the blood pressure.
# The erectile activity was induced by a bipolar stainless-steel, stimulus parameters at a pulse width of […], stimulation frequency of 7.98 Hz, current of 3 mA, stimulation duration of 40 s, and then record the intracavernous pressure (ICP).
# Assessment of erectile function: ICP, BP, change of ICP and detumescence time were monitored though electric cavernous nerve stimulation at 2, 6 and 24 hours post dosing. Erectile function was evaluated by change of ICP and detumescence time.
# [11] = Mean of 3 rats, oral 10.0 mg · kg^−1
# [12] = individual rats, oral 10.0 mg · kg^−1
# [13] = 2 hours after dosing, High dose
# [14] = 2 hours after dosing, Middle dose
# [15] = 6 hours after dosing, High dose
# [16] = 6 hours after dosing, Middle dose
# [17] = 24 hours after dosing, High dose
# [18] = 24 hours after dosing, Low dose
# [19] = 24 hours after dosing, Middle dose
# T7 sequence (P27815 1-647 isoform P27815-4): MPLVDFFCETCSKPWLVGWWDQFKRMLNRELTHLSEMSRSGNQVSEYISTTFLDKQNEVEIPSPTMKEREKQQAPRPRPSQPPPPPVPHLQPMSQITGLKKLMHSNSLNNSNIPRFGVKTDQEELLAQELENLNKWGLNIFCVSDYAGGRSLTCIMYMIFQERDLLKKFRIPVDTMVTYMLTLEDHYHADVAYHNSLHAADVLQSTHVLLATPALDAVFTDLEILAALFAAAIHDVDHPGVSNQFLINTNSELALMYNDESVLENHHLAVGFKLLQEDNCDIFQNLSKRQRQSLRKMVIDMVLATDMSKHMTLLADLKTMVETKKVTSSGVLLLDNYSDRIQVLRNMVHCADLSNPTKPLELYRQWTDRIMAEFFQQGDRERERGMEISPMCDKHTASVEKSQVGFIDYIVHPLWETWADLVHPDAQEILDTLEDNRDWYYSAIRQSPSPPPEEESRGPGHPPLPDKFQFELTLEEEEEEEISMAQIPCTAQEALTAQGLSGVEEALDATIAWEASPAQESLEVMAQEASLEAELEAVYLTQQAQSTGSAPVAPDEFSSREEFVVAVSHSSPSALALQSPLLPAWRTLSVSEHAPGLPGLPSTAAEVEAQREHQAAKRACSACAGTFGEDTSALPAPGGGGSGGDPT
# T2 sequence (Q14432 whole entry): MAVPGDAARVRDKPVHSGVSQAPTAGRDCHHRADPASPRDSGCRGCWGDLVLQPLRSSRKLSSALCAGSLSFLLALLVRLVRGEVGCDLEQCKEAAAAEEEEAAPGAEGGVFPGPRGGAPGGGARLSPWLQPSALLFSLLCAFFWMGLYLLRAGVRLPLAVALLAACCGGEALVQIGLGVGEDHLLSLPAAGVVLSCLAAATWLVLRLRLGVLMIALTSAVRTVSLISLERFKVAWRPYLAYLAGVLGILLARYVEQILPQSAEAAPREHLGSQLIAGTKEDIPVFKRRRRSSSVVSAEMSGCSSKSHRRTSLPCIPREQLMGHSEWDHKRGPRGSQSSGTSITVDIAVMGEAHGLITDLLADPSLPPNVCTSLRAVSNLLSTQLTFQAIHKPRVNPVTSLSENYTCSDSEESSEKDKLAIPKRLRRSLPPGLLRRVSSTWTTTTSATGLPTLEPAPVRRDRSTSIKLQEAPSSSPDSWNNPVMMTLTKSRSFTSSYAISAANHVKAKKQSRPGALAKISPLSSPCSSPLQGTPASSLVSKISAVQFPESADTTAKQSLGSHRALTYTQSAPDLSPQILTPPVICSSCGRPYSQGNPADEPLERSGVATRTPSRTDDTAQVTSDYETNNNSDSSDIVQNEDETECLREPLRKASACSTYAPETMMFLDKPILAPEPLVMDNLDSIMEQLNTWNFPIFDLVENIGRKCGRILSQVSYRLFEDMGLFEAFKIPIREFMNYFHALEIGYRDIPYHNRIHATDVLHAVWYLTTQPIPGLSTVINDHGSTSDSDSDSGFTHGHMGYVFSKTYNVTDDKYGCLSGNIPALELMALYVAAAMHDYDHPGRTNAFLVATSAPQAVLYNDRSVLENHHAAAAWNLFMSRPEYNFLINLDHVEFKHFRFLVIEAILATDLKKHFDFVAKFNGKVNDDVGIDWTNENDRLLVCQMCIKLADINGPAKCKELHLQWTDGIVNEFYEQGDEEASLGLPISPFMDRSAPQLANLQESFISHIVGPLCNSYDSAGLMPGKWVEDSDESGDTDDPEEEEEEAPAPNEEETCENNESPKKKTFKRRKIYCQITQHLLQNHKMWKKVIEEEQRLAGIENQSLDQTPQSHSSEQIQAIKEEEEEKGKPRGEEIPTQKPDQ
# T4 sequence (Q13946 whole entry): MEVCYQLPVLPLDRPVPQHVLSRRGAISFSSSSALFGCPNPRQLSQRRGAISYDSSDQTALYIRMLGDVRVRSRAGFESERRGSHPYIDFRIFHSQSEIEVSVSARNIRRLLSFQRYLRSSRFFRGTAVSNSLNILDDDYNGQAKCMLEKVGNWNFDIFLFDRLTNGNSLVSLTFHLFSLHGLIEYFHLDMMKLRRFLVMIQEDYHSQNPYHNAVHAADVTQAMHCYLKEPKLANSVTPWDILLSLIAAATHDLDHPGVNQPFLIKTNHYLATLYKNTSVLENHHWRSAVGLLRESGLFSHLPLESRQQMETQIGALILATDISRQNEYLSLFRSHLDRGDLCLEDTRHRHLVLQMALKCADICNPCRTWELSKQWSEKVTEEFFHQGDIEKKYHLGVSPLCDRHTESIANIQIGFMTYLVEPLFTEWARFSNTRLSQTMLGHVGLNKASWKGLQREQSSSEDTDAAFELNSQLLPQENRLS
# T3 sequence (P54750 whole entry): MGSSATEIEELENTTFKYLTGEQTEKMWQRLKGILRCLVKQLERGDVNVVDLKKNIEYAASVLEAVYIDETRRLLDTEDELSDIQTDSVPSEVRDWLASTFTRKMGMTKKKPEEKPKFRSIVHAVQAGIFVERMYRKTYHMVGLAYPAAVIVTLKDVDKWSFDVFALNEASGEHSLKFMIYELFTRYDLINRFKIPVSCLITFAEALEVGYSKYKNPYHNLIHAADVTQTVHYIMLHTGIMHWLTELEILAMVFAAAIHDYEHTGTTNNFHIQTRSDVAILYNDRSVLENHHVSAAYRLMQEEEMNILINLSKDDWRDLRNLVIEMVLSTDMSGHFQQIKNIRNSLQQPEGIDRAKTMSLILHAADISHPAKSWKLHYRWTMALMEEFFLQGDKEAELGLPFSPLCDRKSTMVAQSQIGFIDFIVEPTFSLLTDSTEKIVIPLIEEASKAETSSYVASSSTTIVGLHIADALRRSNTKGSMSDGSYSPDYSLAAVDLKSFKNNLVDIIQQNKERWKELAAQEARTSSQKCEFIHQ
# T6 sequence (O00408 whole entry): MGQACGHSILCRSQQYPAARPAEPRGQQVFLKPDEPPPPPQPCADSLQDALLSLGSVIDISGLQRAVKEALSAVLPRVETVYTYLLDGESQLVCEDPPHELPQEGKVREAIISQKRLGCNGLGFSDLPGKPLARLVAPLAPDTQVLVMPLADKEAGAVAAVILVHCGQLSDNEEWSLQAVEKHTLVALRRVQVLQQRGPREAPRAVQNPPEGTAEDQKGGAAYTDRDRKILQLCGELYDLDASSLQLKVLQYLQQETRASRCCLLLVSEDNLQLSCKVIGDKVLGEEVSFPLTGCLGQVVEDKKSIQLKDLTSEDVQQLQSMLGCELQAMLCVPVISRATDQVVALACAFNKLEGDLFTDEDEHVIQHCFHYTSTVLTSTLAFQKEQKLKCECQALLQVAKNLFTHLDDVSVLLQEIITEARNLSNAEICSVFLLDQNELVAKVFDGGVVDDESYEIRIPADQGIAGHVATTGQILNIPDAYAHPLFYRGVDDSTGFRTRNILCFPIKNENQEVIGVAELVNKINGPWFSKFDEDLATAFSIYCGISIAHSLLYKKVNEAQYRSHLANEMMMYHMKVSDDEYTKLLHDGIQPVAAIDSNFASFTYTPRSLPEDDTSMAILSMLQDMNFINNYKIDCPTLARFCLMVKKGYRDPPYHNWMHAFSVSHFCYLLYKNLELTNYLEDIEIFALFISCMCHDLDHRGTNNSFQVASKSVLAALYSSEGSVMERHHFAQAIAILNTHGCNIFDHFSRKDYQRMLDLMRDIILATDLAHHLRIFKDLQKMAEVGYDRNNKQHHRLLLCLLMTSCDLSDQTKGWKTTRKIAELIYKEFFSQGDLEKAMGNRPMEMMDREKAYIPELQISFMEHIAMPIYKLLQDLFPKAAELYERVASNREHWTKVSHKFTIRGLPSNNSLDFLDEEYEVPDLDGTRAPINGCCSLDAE
# T1 sequence (Q9HCR9 whole entry): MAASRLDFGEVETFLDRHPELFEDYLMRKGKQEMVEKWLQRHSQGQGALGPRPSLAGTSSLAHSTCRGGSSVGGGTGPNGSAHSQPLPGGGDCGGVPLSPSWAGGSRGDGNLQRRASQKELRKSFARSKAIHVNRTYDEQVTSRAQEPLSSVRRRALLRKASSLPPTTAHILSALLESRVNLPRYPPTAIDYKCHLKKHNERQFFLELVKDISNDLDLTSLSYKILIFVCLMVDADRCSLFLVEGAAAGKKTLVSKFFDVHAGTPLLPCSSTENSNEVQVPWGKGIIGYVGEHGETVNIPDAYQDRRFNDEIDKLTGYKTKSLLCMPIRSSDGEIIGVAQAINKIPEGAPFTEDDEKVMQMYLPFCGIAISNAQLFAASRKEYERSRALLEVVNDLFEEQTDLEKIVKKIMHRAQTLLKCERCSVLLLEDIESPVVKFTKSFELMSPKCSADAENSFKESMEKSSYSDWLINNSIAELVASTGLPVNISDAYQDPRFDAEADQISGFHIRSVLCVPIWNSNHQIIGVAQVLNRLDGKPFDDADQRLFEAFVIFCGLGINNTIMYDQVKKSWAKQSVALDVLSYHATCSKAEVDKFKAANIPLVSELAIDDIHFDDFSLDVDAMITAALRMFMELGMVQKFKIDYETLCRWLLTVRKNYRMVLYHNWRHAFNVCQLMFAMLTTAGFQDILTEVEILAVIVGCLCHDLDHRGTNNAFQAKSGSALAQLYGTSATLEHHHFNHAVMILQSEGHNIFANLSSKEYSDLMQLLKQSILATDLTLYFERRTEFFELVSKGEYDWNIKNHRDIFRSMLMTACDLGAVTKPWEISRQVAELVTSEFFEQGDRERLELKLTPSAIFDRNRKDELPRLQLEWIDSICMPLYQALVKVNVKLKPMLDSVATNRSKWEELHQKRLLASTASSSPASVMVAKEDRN
compound,measurement,setting,value
"[2H]C1([2H])Oc2ccc([C@@H]3c4[nH]c5ccccc5c4C[C@@H]4C(=O)N(N)CC(=O)N34)cc2O1 [DDCI-01, (6R,12aR)-2-amino-6-(benzo[d][1,3]dioxol-5-yl-2,2-d2)-2,3,6,7,12,12a-hexahydropyrazino[1′,2′:1,6]pyrido[3,4-b]indole-1,4-dione]",IC50,[1],2.6 µM and 2.64 µM
same,IC50,[2],> 10 µM
same,inhibition at 10 µM,[2]; at 10 μM,0%
same,IC50,[3],> 10 µM
same,inhibition at 10 µM,[3]; at 10 μM,0%
same,IC50,[4],> 10 µM
same,inhibition at 10 µM,[4]; at 10 μM,0%
same,IC50,[5],14.7 µM
same,IC50,[6],> 10 µM
same,inhibition at 10 µM,[6]; at 10 μM,0%
same,IC50,[7]; PDE4A,> 10 µM
same,inhibition at 10 µM,"[7]; PDE4A1A, at 10 μM",0%
same,AUMC0-inf,[8]; [11],50280 h · h · ng · mL^−1
same,AUMC0-t,[8]; [11],49982 h · h · ng · mL^−1
same,Kel,[8]; [11],0.305 h⁻¹
same,MRTPO,[8]; [11],4.68 h
same,"half-life (T1/2), comparison in words","[8]; SD rat, oral, compared with Cialis and DDCI02",slightly shorter than that of Cialis and significantly shorter than that of DDCI02
same,half-life,"[8]; SD, rat, plasma, po, 10 mg/kg, Mean of 3 rats, oral 10.0 mg · kg^−1",2.29 h
same,AUC0-inf,"[8]; SD, rat, plasma, po, 10 mg/kg, Mean of 3 rats, oral 10.0 mg · kg^−1, read-out: AUC0-inf",10800 ng·h/mL
same,AUC0-t,"[8]; SD, rat, plasma, po, 10 mg/kg, Mean of 3 rats, oral 10.0 mg · kg^−1, read-out: AUC0-t",10800 ng·h/mL
same,Cmax,"[8]; SD, rat, plasma, po, 10 mg/kg, Mean of 3 rats, oral 10.0 mg · kg^−1, read-out: Cmax",1470 ng/mL
same,half-life,"[8]; SD, rat, plasma, po, 10 mg/kg, individual rats, oral 10.0 mg · kg^−1",2.12 h
same,AUC0-inf,"[8]; SD, rat, plasma, po, 10 mg/kg, individual rats, oral 10.0 mg · kg^−1, read-out: AUC0-inf",9980 ng·h/mL
same,AUC0-t,"[8]; SD, rat, plasma, po, 10 mg/kg, individual rats, oral 10.0 mg · kg^−1, read-out: AUC0-t",9970 ng·h/mL
same,Cmax,"[8]; SD, rat, plasma, po, 10 mg/kg, individual rats, oral 10.0 mg · kg^−1, read-out: Cmax",1300 ng/mL
same,Tmax,"[8]; SD, rat, plasma, individual rats, oral 10.0 mg · kg^−1",2 h
same,AUC0-inf,[8]; [12],11221 ng·h/mL and 11087 ng·h/mL
same,AUC0-t,[8]; [12],11202 ng·h/mL and 11080 ng·h/mL
same,AUMC0-inf,[8]; [12],48665 h · h · ng · mL^−1 and 51065 h · h · ng · mL^−1 and 51110 h · h · ng · mL^−1
same,AUMC0-t,[8]; [12],48497 h · h · ng · mL^−1 and 50539 h · h · ng · mL^−1 and 50911 h · h · ng · mL^−1
same,Cmax,[8]; [12],1574 ng/mL and 1528 ng/mL
same,Kel,[8]; [12],0.327 h⁻¹ and 0.269 h⁻¹ and 0.319 h⁻¹
same,MRTPO,[8]; [12],4.88 h and 4.55 h and 4.61 h
same,t1/2,[8]; [12],2.58 h and 2.17 h
same,"Cmax and Auc, comparison in words","[8]; rat, oral, compared with Cialis",more excellent than those of Cialis
same,IC50,[9],0.0336 µM
same,BP after stimulation,[10]; [13],60.97 ± 19.95 mmHg
same,BP before stimulation,[10]; [13],91.86 ± 21.57 mmHg
same,Change of BP,[10]; [13],30.89 ± 4.09 mmHg
same,Change of ICP,[10]; [13],41.20 ± 9.83 mmHg
same,Detumescence Time,[10]; [13],101.00 ± 21.56 s
same,ICP after stimulation,[10]; [13],52.25 ± 9.49 mmHg
same,ICP before stimulation,[10]; [13],11.05 ± 3.25 mmHg
same,BP after stimulation,"[10]; 2 hours after dosing, Low dose",63.89 ± 2.93 mmHg
same,BP before stimulation,"[10]; 2 hours after dosing, Low dose",97.43 ± 11.45 mmHg
same,Change of BP,"[10]; 2 hours after dosing, Low dose",33.54 ± 13.57 mmHg
same,Change of ICP,"[10]; 2 hours after dosing, Low dose",31.38 ± 3.09 mmHg
same,Detumescence Time,"[10]; 2 hours after dosing, Low dose",38.00 ± 10.42 s
same,ICP after stimulation,"[10]; 2 hours after dosing, Low dose",42.86 ± 5.14 mmHg
same,ICP before stimulation,"[10]; 2 hours after dosing, Low dose",11.48 ± 4.57 mmHg
same,BP after stimulation,[10]; [14],70.38 ± 7.82 mmHg
same,BP before stimulation,[10]; [14],96.49 ± 7.55 mmHg
same,Change of BP,[10]; [14],26.12 ± 3.04 mmHg
same,Change of ICP,[10]; [14],33.09 ± 7.46 mmHg
same,Detumescence Time,[10]; [14],40.75 ± 4.79 s
same,ICP after stimulation,[10]; [14],41.58 ± 7.94 mmHg
same,ICP before stimulation,[10]; [14],8.49 ± 2.06 mmHg
same,BP after stimulation,[10]; [15],50.09 ± 22.36 mmHg
same,BP before stimulation,[10]; [15],76.38 ± 21.11 mmHg
same,Change of BP,[10]; [15],26.29 ± 1.54 mmHg
same,Change of ICP,[10]; [15],41.74 ± 7.92 mmHg
same,Detumescence Time,[10]; [15],64.00 ± 19.37 s
same,ICP after stimulation,[10]; [15],50.94 ± 11.12 mmHg
same,ICP before stimulation,[10]; [15],9.20 ± 8.79 mmHg
same,BP after stimulation,"[10]; 6 hours after dosing, Low dose",61.78 ± 17.93 mmHg
same,BP before stimulation,"[10]; 6 hours after dosing, Low dose",95.73 ± 18.25 mmHg
same,Change of BP,"[10]; 6 hours after dosing, Low dose",33.95 ± 3.20 mmHg
same,Change of ICP,"[10]; 6 hours after dosing, Low dose",31.38 ± 7.73 mmHg
same,Detumescence Time,"[10]; 6 hours after dosing, Low dose",47.75 ± 11.79 s
same,ICP after stimulation,"[10]; 6 hours after dosing, Low dose",40.36 ± 5.92 mmHg
same,ICP before stimulation,"[10]; 6 hours after dosing, Low dose",8.98 ± 3.06 mmHg
same,BP after stimulation,[10]; [16],61.03 ± 12.64 mmHg
same,BP before stimulation,[10]; [16],92.91 ± 19.51 mmHg
same,Change of BP,[10]; [16],31.88 ± 7.39 mmHg
same,Change of ICP,[10]; [16],33.49 ± 8.09 mmHg
same,Detumescence Time,[10]; [16],48.00 ± 23.85 s
same,ICP after stimulation,[10]; [16],40.21 ± 8.37 mmHg
same,ICP before stimulation,[10]; [16],6.72 ± 3.14 mmHg
same,BP after stimulation,[10]; [17],52.95 ± 14.12 mmHg
same,BP before stimulation,[10]; [17],94.16 ± 9.79 mmHg
same,Change of BP,[10]; [17],41.21 ± 11.98 mmHg
same,Change of ICP,[10]; [17],43.36 ± 4.90 mmHg
same,Detumescence Time,[10]; [17],60.75 ± 24.14 s
same,ICP after stimulation,[10]; [17],52.77 ± 2.07 mmHg
same,ICP before stimulation,[10]; [17],9.41 ± 3.81 mmHg
same,BP after stimulation,[10]; [18],72.34 ± 12.33 mmHg
same,BP before stimulation,[10]; [18],108.36 ± 8.89 mmHg
same,Change of BP,[10]; [18],36.03 ± 10.90 mmHg
same,Change of ICP,[10]; [18],30.65 ± 0.98 mmHg
same,Detumescence Time,[10]; [18],23.75 ± 12.84 s
same,ICP after stimulation,[10]; [18],43.55 ± 5.05 mmHg
same,ICP before stimulation,[10]; [18],12.91 ± 5.02 mmHg
same,BP after stimulation,[10]; [19],69.85 ± 12.70 mmHg
same,BP before stimulation,[10]; [19],102.18 ± 15.12 mmHg
same,Change of BP,[10]; [19],32.33 ± 8.76 mmHg
same,Change of ICP,[10]; [19],31.58 ± 5.75 mmHg
same,Detumescence Time,[10]; [19],41.25 ± 14.50 s
same,ICP after stimulation,[10]; [19],40.00 ± 5.56 mmHg
same,ICP before stimulation,[10]; [19],8.41 ± 1.86 mmHg
same,"erectile function of the normal rat model, result in words","[10]; high, middle, and low doses, Tables 1-9",significantly improved the erectile function
